What is called IC50 is the concentration needed to halve the response being measured. Low values mean greater potency, high ones weaker potency.

Assay [1] addresses T1, HRP (Armoracia rusticana, UniProt P00433).
T1 sequence (P00433 31-338 limits assumed): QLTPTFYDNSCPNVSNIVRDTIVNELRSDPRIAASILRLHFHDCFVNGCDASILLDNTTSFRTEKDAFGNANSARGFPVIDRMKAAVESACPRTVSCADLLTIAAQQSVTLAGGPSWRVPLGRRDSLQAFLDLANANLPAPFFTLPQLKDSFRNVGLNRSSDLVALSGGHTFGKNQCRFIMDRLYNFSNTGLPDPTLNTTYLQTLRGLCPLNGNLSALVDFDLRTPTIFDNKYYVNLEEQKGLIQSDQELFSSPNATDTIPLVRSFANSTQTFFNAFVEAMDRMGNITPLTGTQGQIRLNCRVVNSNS
Nature of the assay: Enhancement of the HRP-catalysed luminol reaction by aromatic hydrogen donors. The settings on record: [H2O2] = 1.1 mM; [LH-] = 750 μM; pH 9. It counts as biochemical, horseradish.

Assay [2] addresses T1, HRP. The settings on record: [H2O2] of 17.6 mM; cited from earlier work.
The target in assay [3] is Cyt c (Equus caballus, UniProt P00004). It counts as biochemical, equine. The conditions noted are these: for concentration at which an effect on the Cyt c-catalysed reaction starts: [Cyt c] = 15 μg/mL.
Assay [4] addresses T2, horseradish peroxidase (HRP) (Armoracia rusticana, UniProt P00433).
T2 sequence (P00433 31-338 limits assumed): T1 sequence (P00433 31-338 limits assumed)
Nature of the assay: Peroxide-induced inhibition. It counts as biochemical. The settings on record: [LH-] = 750 μM; [HRP] = 2 μg/mL; pH 9.

Where [5] appears, read: [LH-] = 750 μM, [H2O2] = 1.1 mM, pH 9.

Chain of Cyt c (P00004 whole entry): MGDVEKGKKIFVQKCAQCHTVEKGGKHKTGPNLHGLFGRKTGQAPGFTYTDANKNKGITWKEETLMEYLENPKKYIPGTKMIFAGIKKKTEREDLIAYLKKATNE

Take `Oc1ccc(I)cc1` [IP, iodophenol]: in assay [1], the “concentration for maximal enhancement of the HRP-catalysed reaction” value is “around 200 μM”. Besides, the “concentration for maximal enhancement” value in assay [2] is reported as 4 mM.
On to `NC(=O)C1=CN([C@@H]2O[C@H](COP(=O)([O-])OP(=O)([O-])OC[C@H]3O[C@@H](n4cnc5c(N)ncnc54)[C@H](O)[C@@H]3O)[C@@H](O)[C@H]2O)C=CC1.[Na+].[Na+]` [NADH, Nicotinamide–adenine–dinucleotide disodium], for which the “concentration at which an effect on the Cyt c-catalysed reaction starts” value in assay [3] (setting [5]) worked out at 80 µM. Besides, the “kind of quenching of Cyt c-catalysed luminescence (kinetics)” value in assay [3] ([Cyt c] = 20 μg/mL, [LH-] = 750 μM, [H2O2] = 1.1 mM, pH 9) is reported as “permanent luminescence quenching”.
For `N[C@@H](CCC(=O)N[C@@H](CS)C(=O)NCC(=O)O)C(=O)O` [GSH, glutathione], in assay [4], the “protection of HRP against high [H2O2] (shift of peroxide inhibition)” value was “does not exert a protective effect on HRP”. Also, in assay [3], the IC50 stood at 41 µM. Also, in assay [3] (setting [5]), the “concentration at which an effect on the Cyt c-catalysed reaction starts” value is reported as “about 10 μM”.

Values taken from article PMC6645248 (ACS Omega, 2018).
